Data published in US12606548B2, “Fungicidal oxadiazoles” (FMC CORPORATION, priority 2019, dated 2026).

Key:
[1] = tested on: Puccinia recondita f. sp. tritici; assay: Test C: test suspension sprayed on wheat seedlings, inoculated next day with Puccinia recondita f. sp. tritici (wheat leaf rust), visual disease rating; assay type: in vivo; conditions: for Test C rating (% disease control): relative to the controls
Text: General protocol for preparing test suspensions for Tests A-C: the test compounds were first dissolved in acetone in an amount equal to 3% of the final volume and then suspended at the desired concentration (in ppm) in acetone and purified water (50/50 mix by volume) containing 250 ppm of the surfactant PEG400 (polyhydric alcohol esters). The resulting test suspensions were then used in Tests A-C. The test suspension was sprayed to the point of run-off on wheat seedlings. The following day the seedlings were inoculated with a spore suspension of Puccinia recondita f. sp. tritici; (the causal agent of wheat leaf rust) and incubated in a saturated atmosphere at 20° C., for 24 h, and then moved to a growth chamber at 20° C., for 6 days, after which time visual disease ratings were made. […] A dash (-) indicates the compound was not tested. The test suspensions were sprayed at the concentration listed in the column “Rate in ppm”, unless otherwise indicated.

Phakopsora pachyrhizi = assay: Test A: test suspension sprayed on soybean seedlings, inoculated next day with Phakopsora pachyrhizi (Asian soybean rust), visual disease rating; assay type: in vivo; conditions: for Test A rating (% disease control): relative to the controls
Text: General protocol for preparing test suspensions for Tests A-C: the test compounds were first dissolved in acetone in an amount equal to 3% of the final volume and then suspended at the desired concentration (in ppm) in acetone and purified water (50/50 mix by volume) containing 250 ppm of the surfactant PEG400 (polyhydric alcohol esters). The resulting test suspensions were then used in Tests A-C. The test suspension was sprayed to the point of run-off on soybean seedlings. The following day the seedlings were inoculated with a spore suspension of Phakopsora pachyrhizi (the causal agent of Asian soybean rust) and incubated in a saturated atmosphere at 22° C., for 24 h and then moved to a growth chamber at 22° C., for 8 days, after which time visual disease ratings were made. […] A dash (-) indicates the compound was not tested. The test suspensions were sprayed at the concentration listed in the column “Rate in ppm”, unless otherwise indicated.

Compound	Test C rating (% disease control) ([1]; Rate 10 ppm test suspension)	Test A rating (% disease control) (Phakopsora pachyrhizi; Rate 10 ppm test suspension)	also measured
1-[[4-[5-(trifluoromethyl)-1,2,4-oxadiazol-3-yl]phenyl]methyl]-1H-pyrazolo[3,4-b]pyridine [Compound 147]			Test C disease control rating ([1]; 10 ppm test suspension): 68%; Test A disease control rating (Phakopsora pachyrhizi; 10 ppm test suspension): 100%
3-[5-[(4-bromo-1H-pyrazol-1-yl)methyl]-2-thienyl]-5-(trifluoromethyl)-1,2,4-oxadiazole [Compound 71]			Test C disease control rating ([1]; 10 ppm test suspension): 74%; Test A disease control rating (Phakopsora pachyrhizi; 10 ppm test suspension): 100%
6-chloro-2-[[4-[5-(trifluoromethyl)-1,2,4-oxadiazol-3-yl]phenyl]methyl]-3(2H)-pyridazinone [Compound 4]			Test C disease control rating ([1]; 50 ppm test suspension): 100%; Test A disease control rating (Phakopsora pachyrhizi; 50 ppm test suspension): 100%
COc1ccc(C(O)c2ccc(-c3noc(C(F)(F)F)n3)cc2)cc1 (racemic) [compound 309]			Test C disease control rating ([1]; 50 ppm test suspension): 68%; Test A disease control rating (Phakopsora pachyrhizi; 50 ppm test suspension): 100%
CCOC(=O)C1=NOC(Cc2ccc(-c3noc(C(F)(F)F)n3)s2)C1 (racemic) [compound 366]			Test C disease control rating ([1]; 50 ppm test suspension): 100%; Test A disease control rating (Phakopsora pachyrhizi; 50 ppm test suspension): 100%
O=C(O)C1=NOC(Cc2ccc(-c3noc(C(F)(F)F)n3)s2)C1 (racemic) [compound 367]			Test C disease control rating ([1]; 50 ppm test suspension): 67%; Test A disease control rating (Phakopsora pachyrhizi; 50 ppm test suspension): 96%
CNC(=O)C1=NOC(Cc2ccc(-c3noc(C(F)(F)F)n3)s2)C1 (racemic) [compound 368]			Test C disease control rating ([1]; 50 ppm test suspension): 100%; Test A disease control rating (Phakopsora pachyrhizi; 50 ppm test suspension): 100%
CCNC(=O)C1=NOC(Cc2ccc(-c3noc(C(F)(F)F)n3)s2)C1 (racemic) [compound 369]			Test C disease control rating ([1]; 50 ppm test suspension): 100%; Test A disease control rating (Phakopsora pachyrhizi; 50 ppm test suspension): 100%
C#CCNC(=O)C1=NOC(Cc2ccc(-c3noc(C(F)(F)F)n3)s2)C1 (racemic) [compound 429]			Test C rating (% disease control) ([1]; Rate 50 ppm test suspension): 100%; Test A rating (% disease control) (Phakopsora pachyrhizi; Rate 50 ppm test suspension): 100%
CCN(CC)C(=O)C1=NOC(Cc2ccc(-c3noc(C(F)(F)F)n3)s2)C1 (racemic) [compound 430]			Test C rating (% disease control) ([1]; Rate 50 ppm test suspension): 100%; Test A rating (% disease control) (Phakopsora pachyrhizi; Rate 50 ppm test suspension): 100%
CN(C)C(=O)C1=NOC(Cc2ccc(-c3noc(C(F)(F)F)n3)s2)C1 (racemic) [compound 460]			Test C rating (% disease control) ([1]; Rate 50 ppm test suspension): 99%; Test A rating (% disease control) (Phakopsora pachyrhizi; Rate 50 ppm test suspension): 100%
COCCNC(=O)C1=NOC(Cc2ccc(-c3noc(C(F)(F)F)n3)s2)C1 (racemic) [compound 461]			Test C rating (% disease control) ([1]; Rate 50 ppm test suspension): 100%; Test A rating (% disease control) (Phakopsora pachyrhizi; Rate 50 ppm test suspension): 100%
CCCOC(=O)c1cnn(C(C)c2ccc(-c3noc(C(F)(F)F)n3)s2)c1 (racemic) [compound 493]	100%	100%	
FC(F)(F)c1nc(-c2ccc(Cn3ccc4ncccc43)cc2)no1 [Compound 136, 1-[[4-[5-(trifluoromethyl)-1,2,4-oxadiazol-3-yl]phenyl]methyl]-1H-pyrrolo[3,2-h]pyridine]			Test C disease control rating ([1]; 10 ppm test suspension): 68%; Test C disease control rating ([1]; 50 ppm test suspension): 94%; Test A disease control rating (Phakopsora pachyrhizi; 10 ppm test suspension): 100%; Test A disease control rating (Phakopsora pachyrhizi; 50 ppm test suspension): 100%
COC(=O)c1ccc2c(c1)nnn2Cc1ccc(-c2noc(C(F)(F)F)n2)cc1 [compound 22]			Test C disease control rating ([1]; 10 ppm test suspension): 96%; Test A disease control rating (Phakopsora pachyrhizi; 10 ppm test suspension): 100%
CCOC(=O)c1cc(C)n(Cc2ccc(-c3noc(C(F)(F)F)n3)cc2)n1 [compound 110]			Test C disease control rating ([1]; 10 ppm test suspension): 91%; Test A disease control rating (Phakopsora pachyrhizi; 10 ppm test suspension): 100%
COCCNC(=O)c1cc(C)n(Cc2ccc(-c3noc(C(F)(F)F)n3)cc2)n1 [compound 183]			Test C disease control rating ([1]; 10 ppm test suspension): 100%; Test A disease control rating (Phakopsora pachyrhizi; 10 ppm test suspension): 100%
COC(=O)c1cnn(Cc2ccc(-c3noc(C(F)(F)F)n3)s2)c1 [compound 188]			Test C disease control rating ([1]; 10 ppm test suspension): 100%; Test A disease control rating (Phakopsora pachyrhizi; 10 ppm test suspension): 100%
O=C(NCCCl)c1coc(Cc2ccc(-c3noc(C(F)(F)F)n3)cc2)n1 [compound 204]			Test C disease control rating ([1]; 10 ppm test suspension): 100%; Test A disease control rating (Phakopsora pachyrhizi; 10 ppm test suspension): 100%
CN(CC#N)C(=O)c1cnn(Cc2ccc(-c3noc(C(F)(F)F)n3)cc2)c1 [compound 379]	97%	100%	
CCONC(=O)c1cnn(Cc2ccc(-c3noc(C(F)(F)F)n3)cc2)c1 [compound 380]	100%	100%	
Nc1cnn(Cc2ccc(-c3noc(C(F)(F)F)n3)cc2)c1 [compound 381]	0%	0%	
O=[N+]([O-])c1cnn(Cc2ccc(-c3noc(C(F)(F)F)n3)cc2)c1 [compound 382]	96%	100%	
FC(F)(F)c1nc(-c2ccc(Cn3cc(I)cn3)cc2)no1 [compound 383]	68%	71%	
CCON=Cc1cnn(Cc2ccc(-c3noc(C(F)(F)F)n3)cc2)c1 [compound 384]	100%	100%	

Compound	Test C rating (% disease control) ([1]; Rate 10 ppm test suspension)	Test A rating (% disease control) (Phakopsora pachyrhizi; Rate 10 ppm test suspension)	also measured
CCCON=Cc1cnn(Cc2ccc(-c3noc(C(F)(F)F)n3)cc2)c1 [compound 385]	100%	100%	
C=CCON=Cc1cnn(Cc2ccc(-c3noc(C(F)(F)F)n3)cc2)c1 [compound 386]	100%	100%	
C#CCON=Cc1cnn(Cc2ccc(-c3noc(C(F)(F)F)n3)cc2)c1 [compound 387]	99%	100%	
CC(C)ON=Cc1cnn(Cc2ccc(-c3noc(C(F)(F)F)n3)cc2)c1 [compound 388]	100%	100%	
CC(=O)NN=Cc1cnn(Cc2ccc(-c3noc(C(F)(F)F)n3)cc2)c1 [compound 389]	100%	100%	
CS(=O)(=O)CCOC(=O)c1cnn(Cc2ccc(-c3noc(C(F)(F)F)n3)cc2)c1 [compound 390]	100%	100%	
CCOC(CC(=O)c1cnn(Cc2ccc(-c3noc(C(F)(F)F)n3)cc2)c1)OCC [compound 391]	100%	100%	
CN(C)C(=O)c1cnn(CCCc2ccc(-c3noc(C(F)(F)F)n3)cc2)c1 [compound 406]	93%	100%	
Nc1ncnc2c1cnn2Cc1ccc(-c2noc(C(F)(F)F)n2)cc1 [compound 407]	100%	100%	
FC(F)(F)c1nc(-c2ccc(Cn3ncc4ncccc43)cc2)no1 [compound 408]	100%	100%	
FC(F)(F)c1nc(-c2ccc(Cn3cc4ncccc4n3)cc2)no1 [compound 409]	100%	100%	
CCCCOC(=O)c1cnn(Cc2ccc(-c3noc(C(F)(F)F)n3)cc2)c1 [compound 410]	100%	100%	
O=C(OCC1CC1)c1cnn(Cc2ccc(-c3noc(C(F)(F)F)n3)cc2)c1 [compound 411]	100%	100%	
O=C(OCc1ccccc1)c1cnn(Cc2ccc(-c3noc(C(F)(F)F)n3)cc2)c1 [compound 412]	100%	100%	
FC(F)(F)c1nc(-c2ccc(Cn3ncc4cc(Br)cnc43)cc2)no1 [compound 413]	68%	100%	
FC(F)(F)c1nc(-c2ccc(Cn3cc4cc(Br)cnc4n3)cc2)no1 [compound 414]	100%	100%	
CNC(=O)c1cnn(CCCc2ccc(-c3noc(C(F)(F)F)n3)cc2)c1 [compound 415]	96%	100%	
CCCOC(=O)c1cnn(Cc2ccc3cc(-c4noc(C(F)(F)F)n4)ccc3c2)c1 [compound 416]			Test C rating (% disease control) ([1]; Rate 50 ppm test suspension): 0%; Test A rating (% disease control) (Phakopsora pachyrhizi; Rate 50 ppm test suspension): 77%
N#Cc1cccn(Cc2ccc(-c3noc(C(F)(F)F)n3)cc2)c1=O [compound 417]	100%	100%	
CCOC(=O)c1cncn(Cc2ccc(-c3noc(C(F)(F)F)n3)cc2)c1=O [compound 418]	99%	100%	
CCOC(=O)c1cn(Cc2ccc(-c3noc(C(F)(F)F)n3)cc2)c(=O)cn1 [compound 419]	99%	96%	
COC(=O)c1ccc(=O)n(Cc2ccc(-c3noc(C(F)(F)F)n3)cc2)c1 [compound 420]	100%	100%	
COc1ccn(Cc2ccc(-c3noc(C(F)(F)F)n3)cc2)c(=O)c1 [compound 421]	100%	100%	
COC(=O)c1cccn(Cc2ccc(-c3noc(C(F)(F)F)n3)cc2)c1=O [compound 422]	93%	90%	
